Source: US20230181608A1, “NUTRIENT COMPOSITION, FOOD INCLUDING THE SAME AND USE OF THE NUTRIENT COMPOSITION” (Heilongjiang Feihe Dairy Co., Ltd., priority 2021, published 2023)

Key:
Format in all cases: cell-based, newborn rats and mice
[1] = system: oligodendrocyte precursor cells (A2B5 positive cells); test: number of A2B5 positive cells (number of OPCs) after 12 DIVs, primary mixed culture of neurons and OL; details: for effect on the number of A2B5 positive cells (proliferation of oligodendrocyte precursor cells), in words: in comparison with the blank control group / with the components alone
Experimental: All experiments were approved by ethics, and the primary mixed culture of neurons and OL were carried out according to the following steps. Briefly, the forebrain of newborn rats and mice were dissociated with trypsin (Trypsin EDTA 1X, PAN BIOTECH) at 37° C. for 20 minutes. After addition of Dulbecco modified Eagle medium (DMEM, PAN BIOTECH) containing DNAase I Grade II (0.1 mg/ml, PAN BIOTECH) and 10% fetal bovine serum (FCS, GIBCO), the reaction was stopped. The cells were mechanically separated three times through a 10 ml pipette, and then centrifuged at 4° C. under 515 g for 10 minutes. Living cells were inoculated in 96-well plates (20000/well), which were pre-coated with poly-L-lysine (BD Falcon) and laminin (Sigma). The culture medium consists of Neurobasal (GIBCO) added with 2% B27 (GIBCO), 2 mM L-glutamine (L Glu, PAN BIOTECH), 2% P/S solution (PAN BIOTECH), 1% FCS and 10 ng/ml platelet-derived growth factor (PDGF-AA, PAN BIOTECH). The 96-well plates are stored in a humidified incubator, at a temperature of 37° C. and with an environment of air (95%) - CO2 (5%). […] Half of the medium were replaced every other day. A mixture or separate nutrition were added to the fresh medium (the nutrient composition prepared above, containing 2′-FL, choline and/or milk fat global membrane). After 12, 18 and 30 DIVs, the cells were fixed with a cold mixture of 95% ethanol and acetic acid (5%) for 5 minutes. The non-specific sites were then blocked for 15 minutes at room temperature with a phosphate buffered saline (PBS) solution containing 0.1% saponin (Sigma) and 1% FCS (GIBCO). […] Finally, a secondary goat anti-rabbit antibody (diluted 1/400, SIGMA, SAB460084) was used to co-incubate at room temperature for 1 h. ImageXpress equipped with LED lights (360/480/565 for excitation and 460/535/620 for emission) is used for 20× amplification. All images are acquired using the same settings. […] Cells were inoculated on a 96-well plate and cultured for a certain period of time. Half of the culture medium was replaced every other day. […] The blank control group, positive control group and sample intervention group were compared, respectively. […] See Table 2 below for specific experimental dosage.

[2] = system: oligodendrocyte precursor cells (MAG positive cells); test: number of MAG positive cells after 18 DIVs (OPC differentiation/myelination), primary mixed culture of neurons and OL; details: for effect on the number of MAG positive cells (myelination of oligodendrocyte precursor cells), in words: in comparison with the blank control group / with the components alone
Experimental: (§1) All experiments were approved by ethics, and the primary mixed culture of neurons and OL were carried out according to the following steps. Briefly, the forebrain of newborn rats and mice were dissociated with trypsin (Trypsin EDTA 1X, PAN BIOTECH) at 37° C. for 20 minutes. After addition of Dulbecco modified Eagle medium (DMEM, PAN BIOTECH) containing DNAase I Grade II (0.1 mg/ml, PAN BIOTECH) and 10% fetal bovine serum (FCS, GIBCO), the reaction was stopped. The cells were mechanically separated three times through a 10 ml pipette, and then centrifuged at 4° C. under 515 g for 10 minutes.
(§2) Living cells were inoculated in 96-well plates (20000/well), which were pre-coated with poly-L-lysine (BD Falcon) and laminin (Sigma). The culture medium consists of Neurobasal (GIBCO) added with 2% B27 (GIBCO), 2 mM L-glutamine (L Glu, PAN BIOTECH), 2% P/S solution (PAN BIOTECH), 1% FCS and 10 ng/ml platelet-derived growth factor (PDGF-AA, PAN BIOTECH). The 96-well plates are stored in a humidified incubator, at a temperature of 37° C. and with an environment of air (95%) - CO2 (5%).
(§3) A same number of cells were placed on 48-well plates, and then incubated for 12, 18 or 30 DIVs. Half of the medium were replaced every other day. A mixture or separate nutrition were added to the fresh medium (the nutrient composition prepared above, containing 2′-FL, choline and/or milk fat global membrane).
(§4) After 12, 18 and 30 DIVs, the cells were fixed with a cold mixture of 95% ethanol and acetic acid (5%) for 5 minutes. The non-specific sites were then blocked for 15 minutes at room temperature with a phosphate buffered saline (PBS) solution containing 0.1% saponin (Sigma) and 1% FCS (GIBCO).
At 18 DIVs, nerve cells were co-incubated with mouse monoclonal antibody MAG (dilution: 1/400, Millipore, MAB1567) and neurofilament protein antibody (dilution: 1/500, Sigma, N4142) for 2 h. Then a secondary goat […] antibody (dilution: 1/400, Sigma, SAB4600042) and a secondary goat anti-rabbit antibody (dilution: 1/400, SIGMA, SAB4600084) were used to co-incubate at room temperature for 1 h.
(§5) ImageXpress equipped with LED lights (360/480/565 for excitation and 460/535/620 for emission) is used for 20× amplification. All images are acquired using the same settings.
The differentiation of OPC into OL was evaluated by counting the number of MAG positive cells in cell culture. The results were expressed as the average number of cells per image and per well. The morphological maturity of MAG positive cells were assessed by measuring the average surface area of MAG positive cells in 18 DIV wells ([…]/image/well).
(§6) Cells were inoculated on a 96-well plate and cultured for a certain period of time. Half of the culture medium was replaced every other day. Varying concentrations of mixed or separate 2′-FL mixtures were added to the special culture medium for fresh primary cells (added on day 12, 18 and 30, respectively). 6 replicas for each sample. […] The blank control group, positive control group and sample intervention group were compared, respectively. The effects of milk fat global membrane, 2′-FL and choline, alone or in mixture, on OPC population, OL maturation and differentiation, myelin formation and neurite growth was determined by immunohistochemistry (MBP, NF, A2B5). See Table 2 below for specific experimental dosage.
In order to measure the effect of mixed nutrition or single nutrition treatment on OPC cell myelination, we evaluated the number of positive cells labelled MAG after 18 DIVs.

[3] = system: oligodendrocyte precursor cells (MBP positive cells); test: number of MBP positive cells after 30 DIVs (OPC/OL maturation), primary mixed culture of neurons and OL; details: for effect on the number of MBP positive cells (maturation of oligodendrocyte precursor cells), in words: in comparison with the blank control group / with the components alone
Experimental: as §1, §2, §3, §4
At 30 DIVs, nerve cells were co-incubated with mouse monoclonal antibody MBP (dilution: 1/1000, Novus, NBP1-05204) and neurofilament protein antibody (dilution: 1/500, Sigma, N4142) for 2 hours. Then a secondary goat anti-mouse antibody (dilution: 1/800, Sigma, SAB4600042) and a secondary goat anti-rabbit antibody (dilution: 1/400, SIGMA, SAB4600084) were used to co-incubate at room temperature for 1 h.
as §5
At 30 DIVs, the maturity of OL was estimated by calculating the number of MBP positive cells (average number of cells per imge, per well) and the average surface area of MBP positive cells at 30 DIVs ([…], per image, per well).
as §6
In order to measure the effect of mixed nutrition or single nutrition treatment on OPC cell maturation, we evaluated the number of MBP positive cells after 30DIVs.

[4] = high dosage: 2′-FL 20, milk fat globule membrane 55, choline 6.5 mg/ml (those present)
[5] = low dosage: 2′-FL 0.2, milk fat globule membrane 0.55, choline 0.065 mg/ml (those present)
[6] = medium dosage: 2′-FL 2, milk fat globule membrane 5.5, choline 0.65 mg/ml (those present)
[7] = low dosage: milk fat globule membrane 0.55 or choline 0.065 mg/ml

CC1O[C@@H](OC2[C@H](O[C@@H]3C(CO)O[C@H](O)C(O)[C@@H]3O)OC(CO)[C@H](O)[C@H]2O)C(O)[C@H](O)[C@@H]1O (stereo partly drawn) [2′-FL, 2′-fucosyl lactose]
increase of the number of A2B5 positive cells relative to the blank control group (Cell Experiment Example 1) [1, 4]: 18.33
number of A2B5 positive cells (mean±standard deviation) [1, 4]: 135.00±6.08
effect on the number of A2B5 positive cells (proliferation of oligodendrocyte precursor cells), in words [1]: may increase the number of A2B5 positive cells
number of A2B5 positive cells (mean±standard deviation) [1, 5]: 151.33±4.73
increase of the number of A2B5 positive cells relative to the blank control group (Cell Experiment Example 1) [1, 6]: 39.33
number of A2B5 positive cells (mean±standard deviation) [1, 6]: 156.00 ±5.57
increase of the number of MAG positive cells relative to the blank control group (Cell Experiment Example 1) [2, 4]: 21.33
number of MAG positive cells (mean±standard deviation) [2, 4]: 62.00±4.00
effect on the number of MAG positive cells (myelination of oligodendrocyte precursor cells), in words [2]: could increase the number of MAG positive cells
number of MAG positive cells (mean±standard deviation) [2, 5]: 54.00±6.08
increase of the number of MAG positive cells relative to the blank control group (Cell Experiment Example 1) [2, 6]: 35.66
number of MAG positive cells (mean±standard deviation) [2, 6]: 76.33±4.51
increase of the number of MBP positive cells relative to the blank control group (Cell Experiment Example 1) [3, 4]: 20.67
number of MBP positive cells (mean±standard deviation) [3, 4]: 83.00±5.29
effect on the number of MBP positive cells (maturation of oligodendrocyte precursor cells), in words [3]: can increase the number of MBP positive cells
number of MBP positive cells (mean±standard deviation) [3, 5]: 104.00±4.58
increase of the number of MBP positive cells relative to the blank control group (Cell Experiment Example 1) [3, 6]: 42.34
number of MBP positive cells (mean±standard deviation) [3, 6]: 104.67±5.03 * *

CC(C)CCC[C@@H](C)[C@H]1CC[C@H]2[C@@H]3CCC4=CC(=NO)CC[C@]4(C)[C@H]3CC[C@]12C [Olesoxime]
number of A2B5 positive cells (mean±standard deviation) ([1]; positive control, 300 nM): 171.33±3.51
number of MAG positive cells (mean±standard deviation) ([2]; positive control, 300 nM): 87.00±4.36
number of MBP positive cells (mean±standard deviation) ([3]; positive control, 300 nM): 124.00±3.61

C[N+](C)(C)CCO.[Cl-] [choline, choline chloride]
increase of the number of A2B5 positive cells relative to the blank control group (Cell Experiment Example 1) [1, 4]: -9
number of A2B5 positive cells (mean±standard deviation) [1, 4]: 107.67±6.03
effect on the number of A2B5 positive cells (proliferation of oligodendrocyte precursor cells), in words [1]: may increase the number of A2B5 positive cells
number of A2B5 positive cells (mean±standard deviation) [1, 5]: 167.33±3.51
increase of the number of A2B5 positive cells relative to the blank control group (Cell Experiment Example 1) [1, 7]: 50.66
increase of the number of A2B5 positive cells relative to the blank control group (Cell Experiment Example 1) [1, 6]: 109
number of A2B5 positive cells (mean±standard deviation) [1, 6]: 225.67±5.03
increase of the number of MAG positive cells relative to the blank control group (Cell Experiment Example 1) [2, 4]: 40.66
number of MAG positive cells (mean±standard deviation) [2, 4]: 81.33±3.21
effect on the number of MAG positive cells (myelination of oligodendrocyte precursor cells), in words [2]: could increase the number of MAG positive cells
number of MAG positive cells (mean±standard deviation) [2, 5]: 66.33±6.03
increase of the number of MAG positive cells relative to the blank control group (Cell Experiment Example 1) [2, 7]: 25.66
increase of the number of MAG positive cells relative to the blank control group (Cell Experiment Example 1) [2, 6]: 53.33
number of MAG positive cells (mean±standard deviation) [2, 6]: 94.00±4.58
increase of the number of MBP positive cells relative to the blank control group (Cell Experiment Example 1) [3, 4]: 5.67
number of MBP positive cells (mean±standard deviation) [3, 4]: 68.00±2.65
effect on the number of MBP positive cells (maturation of oligodendrocyte precursor cells), in words [3]: can increase the number of MBP positive cells
number of MBP positive cells (mean±standard deviation) [3, 5]: 113.33±5.69
increase of the number of MBP positive cells relative to the blank control group (Cell Experiment Example 1) [3, 7]: 51
increase of the number of MBP positive cells relative to the blank control group (Cell Experiment Example 1) [3, 6]: 71.34
number of MBP positive cells (mean±standard deviation) [3, 6]: 133.67±4.16
